According to paper PMC7435600, “Flavonoids and Terpenoids with PTP-1B Inhibitory Properties from the Infusion of Salvia amarissima Ortega” (Molecules, 2020):
pIC50: −log10 of the molar value.

Tests used:
[1] = set-up: method as in doi:10.17129/botsci.2187; conditions: cited from earlier work
mammal α-glucosidases = test system: mammal α-glucosidases; set-up: method as in PMID 28422509; conditions: cited from earlier work
[2] = molecular target: T1, protein tyrosine phosphatase 1B (PTP-1B) (Homo sapiens, UniProt P18031); assay: Protein tyrosine phosphatase 1B inhibition assay (pNPP); assay type: biochemical; conditions: for IC50: hPTP-1B, pNPP substrate, three independent determinations, read-out: PTP-1B inhibitory activity expressed as IC50 (converted)
T1 construct: made in house
T1 sequence (P18031 1-435): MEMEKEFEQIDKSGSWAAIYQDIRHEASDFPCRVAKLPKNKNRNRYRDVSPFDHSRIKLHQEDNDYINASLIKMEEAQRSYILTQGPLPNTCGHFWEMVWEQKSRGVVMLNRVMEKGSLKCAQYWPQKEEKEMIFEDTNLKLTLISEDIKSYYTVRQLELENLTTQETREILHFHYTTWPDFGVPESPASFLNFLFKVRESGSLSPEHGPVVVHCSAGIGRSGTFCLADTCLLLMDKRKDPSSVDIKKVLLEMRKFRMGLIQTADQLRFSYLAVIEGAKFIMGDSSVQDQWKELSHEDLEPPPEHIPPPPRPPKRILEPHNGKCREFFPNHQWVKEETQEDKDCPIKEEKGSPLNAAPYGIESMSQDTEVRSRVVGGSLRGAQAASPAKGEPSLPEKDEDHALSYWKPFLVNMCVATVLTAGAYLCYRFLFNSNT
Protocol: The expression and purification of hPTP-1B was performed as previously described. […] Aliquots of 0–10 μL of testing materials (triplicated) were incubated for 5 min with 20 μL of enzyme stock solution in Tris-HCl (22 nM). After incubation, 10 μL of p-nitrophenylphosphate (pNPP; 5 mM) was added and further incubated for 15 min at 25 °C; then, the absorbance was determined (λmax 415 nm). For all samples, the inhibitory activity was determined as a percentage in comparison to the blank (Tris-HCl) according to the following equation:(1) % PTP1B=(1−A415t/A415C)×100 where % PTP-1B is the percentage of inhibition, A415t is the corrected absorbance of the extracts, fraction, or compounds under testing (A415end − A415initial) and A415C is the absorbance of the blank (A415end blank − A415initial blank).

PTP-1B = test system: PTP-1B; set-up: method as in PMID 22940448; conditions: other studies; cited from earlier work

SMILES	IC50 [2] [µM]	also measured
CC1CCC23COC(=O)C2=CC(OC2OC(CO)C(O)C(O)C2O)CC3C1(C)CCc1ccoc1 (stereo not drawn) [Compound 1, amarisolide]	280	antinociceptive properties [1]: demonstrated; inhibitory activity against mammal α-glucosidases (mammal α-glucosidases; in vitro and in vivo): showed inhibitory activity; inhibition of α-glycosidases in vivo (mammal α-glucosidases): inhibited
COc1cc(-c2cc(=O)c3c(O)c(O)c(OC)cc3o2)ccc1O [Compound 2, 5,6,4′-trihydroxy-7,3′-dimethoxyflavone]	189	
O=c1cc(-c2ccc(O)c(O)c2)oc2cc(O)c(O)c(O)c12 [Compound 3, 6-hydroxyluteolin]	80.1	
C[C@@H]1O[C@@H](OC[C@H]2O[C@@H](Oc3c(-c4ccc(O)c(O)c4)oc4cc(O)cc(O)c4c3=O)[C@H](O)[C@@H](O)[C@@H]2O)[C@H](O)[C@H](O)[C@H]1O [Compound 4, rutin]	323	
O=C(/C=C/c1ccc(O)c(O)c1)O[C@H](Cc1ccc(O)c(O)c1)C(=O)O [Compound 5, rosmarinic acid]	137	
O=c1c(O[C@@H]2O[C@H](CO)[C@@H](O)[C@H](O)[C@H]2O)c(-c2ccc(O)c(O)c2)oc2cc(O)cc(O)c12 [Compound 6, isoquercitrin]	260	
COc1cc2oc(-c3ccc(O)c(O)c3)cc(=O)c2c(O)c1O [Compound 7, pedalitin]	62	antinociceptive properties [1]: demonstrated; inhibition of α-glycosidases in vivo (mammal α-glucosidases): inhibited
C[C@@H]1CC[C@@]23COC(=O)C2=C[C@@H](O[C@@H]2O[C@H](CO)[C@@H](O)[C@H](O)[C@H]2O)C[C@@H]3[C@@]1(C)CCC1=CC(=O)OC1O (stereo partly drawn) [Compound 8a,b, (2S,5S,8R,9R,10R,14R,S)-2-(O-β-D-glucopyranosyl)-neo-clerodan-14-hydroxy-3, 13-diene-14,15;18,19-diolide]	514	
C[C@H]1[C@H](C)CC[C@]2(C(=O)O)CC[C@]3(C)C(=CC[C@@H]4[C@@]5(C)CC[C@H](O)C(C)(C)[C@@H]5CC[C@]43C)[C@H]12 [UA, ursolic acid, reference compound]		times more active than compound 7 experimentally ([2]; ratio of PTP-1B IC50, UA vs compound 7): 2.2 times; pIC50 (PTP-1B): […]
